Data from patent US9493501B2, “Methyltransferase inhibitors for treating cancer” (MEMORIAL SLOAN-KETTERING CANCER CENTER, priority 2011, dated 2016).
pIC50: −log10 of the molar value.

What was measured:
PRMT3 (211-531) = molecular target: T1, PRMT3 (211-531) (Homo sapiens, UniProt O60678); assay: Filter-paper methylation assay, PRMT3; assay type: biochemical; conditions: 100 nM enzyme, RGG peptide, 3 h
T1 construct: PRMT3 (211-531)

GLP1 (951-1235) = molecular target: T2, GLP1 (951-1235) (Homo sapiens, UniProt Q9H9B1); assay: biochemical; conditions: 10 nM enzyme, H3 (1-21 aa) peptide, 1 h
T2 sequence (Q9H9B1 982-1266 limits assumed): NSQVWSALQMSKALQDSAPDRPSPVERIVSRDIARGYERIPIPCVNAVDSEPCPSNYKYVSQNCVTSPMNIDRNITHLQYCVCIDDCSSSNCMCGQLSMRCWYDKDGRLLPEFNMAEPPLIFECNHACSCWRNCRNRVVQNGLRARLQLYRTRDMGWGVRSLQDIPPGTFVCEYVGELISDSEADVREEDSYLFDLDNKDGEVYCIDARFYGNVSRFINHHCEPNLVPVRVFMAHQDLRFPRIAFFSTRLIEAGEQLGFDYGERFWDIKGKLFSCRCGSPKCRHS

PRMT1 (10-352) = molecular target: T3, PRMT1 (10-352) (Homo sapiens, UniProt Q99873); assay: Filter-paper methylation assay, PRMT1; assay type: biochemical; conditions: 100 nM enzyme, RGG peptide, 1.5 h
T3 construct: PRMT1 (10-352)

SET7/9 Full-length = molecular target: T4, SET7/9 Full-length (Homo sapiens, UniProt Q8WTS6); assay: Filter-paper methylation assay, SET7/9; assay type: biochemical; conditions: 150 nM enzyme, H3 (1-21 aa) peptide, 3 h
T4 construct: SET7/9 Full-length
T4 sequence (Q8WTS6 1-366): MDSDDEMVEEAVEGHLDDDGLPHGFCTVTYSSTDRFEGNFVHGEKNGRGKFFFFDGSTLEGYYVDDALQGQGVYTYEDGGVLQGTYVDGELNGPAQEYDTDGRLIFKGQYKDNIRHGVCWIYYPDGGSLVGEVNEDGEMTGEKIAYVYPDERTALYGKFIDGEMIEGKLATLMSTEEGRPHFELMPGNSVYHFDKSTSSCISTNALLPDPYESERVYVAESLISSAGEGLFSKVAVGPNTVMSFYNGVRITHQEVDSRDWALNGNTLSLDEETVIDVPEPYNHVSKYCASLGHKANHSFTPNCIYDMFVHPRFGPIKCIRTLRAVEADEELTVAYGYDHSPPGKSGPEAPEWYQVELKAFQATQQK

SETD2 (1347-1711) = molecular target: T5, SETD2 (1347-1711) (Homo sapiens, UniProt Q9BYW2); assay: Filter-paper methylation assay, SETD2; assay type: biochemical; conditions: 250 nM enzyme, H3 (20-50 aa) peptide, 4 h
T5 construct: SETD2 (1347-1711)
T5 sequence (Q9BYW2 1347-1711): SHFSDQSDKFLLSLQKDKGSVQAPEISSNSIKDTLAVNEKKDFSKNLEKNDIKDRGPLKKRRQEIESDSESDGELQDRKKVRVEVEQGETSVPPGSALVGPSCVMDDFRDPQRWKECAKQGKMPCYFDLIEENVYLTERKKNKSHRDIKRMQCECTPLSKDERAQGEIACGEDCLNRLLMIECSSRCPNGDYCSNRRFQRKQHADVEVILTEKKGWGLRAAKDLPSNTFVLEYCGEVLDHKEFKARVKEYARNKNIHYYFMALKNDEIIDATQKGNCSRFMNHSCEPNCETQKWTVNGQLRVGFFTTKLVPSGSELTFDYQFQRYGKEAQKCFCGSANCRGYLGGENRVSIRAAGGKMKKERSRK

CARM1 (19-608) = molecular target: T6, CARM1 (19-608) (Homo sapiens, UniProt Q86X55); assay: Filter-paper methylation assay, CARM1; assay type: biochemical; conditions: 300 nM enzyme, H3 (1-40 aa) peptide, 7 h; read-out: IC50 CARM1
T6 construct: CARM1 (19-608)
T6 sequence (Q86X55 19-608): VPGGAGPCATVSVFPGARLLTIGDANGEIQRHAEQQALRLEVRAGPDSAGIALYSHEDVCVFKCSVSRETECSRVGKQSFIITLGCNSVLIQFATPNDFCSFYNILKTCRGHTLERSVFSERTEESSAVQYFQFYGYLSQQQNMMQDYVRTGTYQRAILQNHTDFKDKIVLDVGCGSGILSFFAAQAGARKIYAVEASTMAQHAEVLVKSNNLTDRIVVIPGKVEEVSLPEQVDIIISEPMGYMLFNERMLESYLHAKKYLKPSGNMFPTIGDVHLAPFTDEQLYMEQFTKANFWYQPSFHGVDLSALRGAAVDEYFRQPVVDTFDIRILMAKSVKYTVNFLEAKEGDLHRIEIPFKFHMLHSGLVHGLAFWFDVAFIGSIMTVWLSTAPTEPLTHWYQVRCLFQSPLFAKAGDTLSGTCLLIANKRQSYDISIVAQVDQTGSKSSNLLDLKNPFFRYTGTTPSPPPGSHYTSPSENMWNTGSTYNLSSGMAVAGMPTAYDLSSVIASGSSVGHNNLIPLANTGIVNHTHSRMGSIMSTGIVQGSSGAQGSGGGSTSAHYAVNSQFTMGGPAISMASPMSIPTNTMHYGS

G9a (913-1913) = molecular target: T7, G9a (913-1913) (Homo sapiens, UniProt Q96KQ7); assay: Filter-paper methylation assay, G9a; assay type: biochemical; conditions: 20 nM enzyme, H3 (1-21 aa) peptide, 1 h
T7 construct: G9a (913-1913)

SMYD2 Full-length = molecular target: T8, SMYD2 Full-length (Homo sapiens, UniProt Q9NRG4); assay: Filter-paper methylation assay, SMYD2; assay type: biochemical; conditions: 50 nM enzyme, p53 (360-393 aa) peptide, 10 h; read-out: IC50 SMYD2-FL
T8 construct: SMYD2 Full-length

SET8 (191-352) = molecular target: T9, SET8 (191-352) (Homo sapiens, UniProt Q9NQR1); assay: Filter-paper methylation assay, SET8; assay type: biochemical; conditions: 1000 nM enzyme, H4 (10-30 aa) peptide, 8 h
T9 construct: SET8 (191-352)
T9 sequence (Q9NQR1 191-352 isoform Q9NQR1-2): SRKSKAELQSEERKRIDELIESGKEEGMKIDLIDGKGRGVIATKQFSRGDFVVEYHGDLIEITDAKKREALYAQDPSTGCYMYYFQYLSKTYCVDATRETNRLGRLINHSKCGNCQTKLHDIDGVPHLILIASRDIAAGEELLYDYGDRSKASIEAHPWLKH

SUV39H2 (112-410) = molecular target: T10, SUV39H2 (112-410) (Homo sapiens, UniProt Q9H5I1); assay: Filter-paper methylation assay, SUV39H2; assay type: biochemical; conditions: 5 nM enzyme, H3 (1-21 aa) peptide, 4 h
T10 construct: SUV39H2 (112-410)

[1] = tested on: histone 3 lysine 36 tri-methyl; assay: Cellular assay, histone methylation in HEK-293T cells; assay type: cell-based; conditions: "in vivo", up to 100 μM, 24 h, H3K36 tri-methyl blot

T7 sequence (Q96KQ7 913-1193): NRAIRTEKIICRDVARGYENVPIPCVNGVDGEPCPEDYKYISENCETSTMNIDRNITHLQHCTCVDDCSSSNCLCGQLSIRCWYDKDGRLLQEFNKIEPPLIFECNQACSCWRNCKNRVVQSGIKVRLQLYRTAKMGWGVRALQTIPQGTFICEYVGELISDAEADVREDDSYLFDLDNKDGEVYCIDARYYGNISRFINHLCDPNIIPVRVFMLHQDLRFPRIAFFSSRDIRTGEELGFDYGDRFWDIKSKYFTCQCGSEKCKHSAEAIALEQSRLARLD
T1 sequence (O60678 211-531): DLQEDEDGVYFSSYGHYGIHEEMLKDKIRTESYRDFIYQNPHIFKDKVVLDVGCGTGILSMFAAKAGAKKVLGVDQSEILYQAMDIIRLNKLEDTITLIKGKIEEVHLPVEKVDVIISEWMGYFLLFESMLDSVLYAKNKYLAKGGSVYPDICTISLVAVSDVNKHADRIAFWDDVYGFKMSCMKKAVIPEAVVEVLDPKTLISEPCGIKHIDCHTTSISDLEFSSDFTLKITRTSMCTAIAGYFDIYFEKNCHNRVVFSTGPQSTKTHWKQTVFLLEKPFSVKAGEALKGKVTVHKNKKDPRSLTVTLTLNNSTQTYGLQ
T3 sequence (Q99873 10-352 isoform Q99873-3, species assumed): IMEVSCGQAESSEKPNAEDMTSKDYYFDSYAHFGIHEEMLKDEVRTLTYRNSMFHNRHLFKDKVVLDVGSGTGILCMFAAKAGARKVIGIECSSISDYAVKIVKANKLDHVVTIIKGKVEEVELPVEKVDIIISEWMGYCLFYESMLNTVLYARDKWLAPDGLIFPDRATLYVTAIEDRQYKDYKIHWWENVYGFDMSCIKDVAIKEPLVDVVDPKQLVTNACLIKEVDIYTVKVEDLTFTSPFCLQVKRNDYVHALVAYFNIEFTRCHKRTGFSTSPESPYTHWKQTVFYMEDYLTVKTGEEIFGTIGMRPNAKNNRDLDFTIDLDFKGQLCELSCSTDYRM
T8 sequence (Q9NRG4 whole entry, the tested form may be a part): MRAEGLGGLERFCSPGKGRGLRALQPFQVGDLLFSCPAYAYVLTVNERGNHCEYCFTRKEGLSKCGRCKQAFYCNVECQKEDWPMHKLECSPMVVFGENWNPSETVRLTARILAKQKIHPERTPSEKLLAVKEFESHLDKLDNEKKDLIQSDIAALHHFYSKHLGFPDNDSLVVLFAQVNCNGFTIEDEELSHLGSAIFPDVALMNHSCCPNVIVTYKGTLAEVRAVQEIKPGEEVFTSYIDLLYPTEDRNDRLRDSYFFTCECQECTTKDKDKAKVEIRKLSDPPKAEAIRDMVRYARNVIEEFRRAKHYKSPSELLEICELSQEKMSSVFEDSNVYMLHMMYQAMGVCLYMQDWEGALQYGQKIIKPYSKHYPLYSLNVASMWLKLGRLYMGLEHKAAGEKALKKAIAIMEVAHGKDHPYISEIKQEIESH
T10 sequence (Q9H5I1 112-410): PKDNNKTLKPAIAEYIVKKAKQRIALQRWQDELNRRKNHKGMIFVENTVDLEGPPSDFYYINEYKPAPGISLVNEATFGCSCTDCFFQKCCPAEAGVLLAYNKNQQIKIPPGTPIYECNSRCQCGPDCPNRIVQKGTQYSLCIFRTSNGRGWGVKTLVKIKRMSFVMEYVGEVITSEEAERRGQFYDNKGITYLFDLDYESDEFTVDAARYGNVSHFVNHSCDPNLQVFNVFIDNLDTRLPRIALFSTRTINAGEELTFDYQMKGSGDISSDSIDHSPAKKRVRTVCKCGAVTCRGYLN

## CCCN[C@@H](CC[C@H](N)C(=O)O)C[C@H]1O[C@@H](n2cnc3c(N)ncnc32)[C@H](O)[C@@H]1O [Compound 102]
PRMT3 (211-531)
  pIC50: ~4.00
GLP1 (951-1235)
  pIC50: < 4.00
PRMT1 (10-352)
  pIC50: 5.02
SET7/9 Full-length
  pIC50: 5.66
SETD2 (1347-1711)
  pIC50: 6.10
CARM1 (19-608)
  pIC50: 5.52
G9a (913-1913)
  pIC50: < 4.00
SMYD2 Full-length
  pIC50: 6.30
SET8 (191-352)
  pIC50: < 4.00
SUV39H2 (112-410)
  pIC50: 5.01
[1]
  inhibiting histone methyltransferase: showed activity in inhibiting histone methyltransferase
